Test results from ChEMBL document CHEMBL3525924, “Cytochrome P450 3A-mediated microsomal biotransformation of 1α,25-dihydroxyvitamin D3 in mouse and human liver: drug-related induction and inhibition of catabolism” (Drug Metab Dispos, 2012).

What was measured:
Type in all cases: ADME
[1] = test system: Liver microsome; assay: Drug metabolism in human liver microsomes assessed as assessed as metabolite formation at 20 uM after 30 mins by LC/MS analysis in presence of NADPH; details: 0.5 h
[2] = Drug metabolism in prednisone treated CD1 mouse liver microsomes assessed as 1alpha,23S,25(OH)3D3 metabolite formation at 20 uM after 30 mins by LC/MS analysis in presence of NADPH; details: 0.5 h
[3] = Drug metabolism in prednisone treated CD1 mouse liver microsomes assessed as 1alpha,24R,25(OH)3D3 metabolite formation at 20 uM after 30 mins by LC/MS analysis in presence of NADPH; details: 0.5 h
[4] = Drug metabolism in prednisone treated CD1 mouse liver microsomes assessed as 1alpha,24S,25(OH)3D3 metabolite formation at 20 uM after 30 mins by LC/MS analysis in presence of NADPH; details: 0.5 h
[5] = Drug metabolism in prednisone treated CD1 mouse liver microsomes assessed as 1alpha,23R,25(OH)3D3 metabolite formation at 20 uM after 30 mins by LC/MS analysis in presence of NADPH; details: 0.5 h
[6] = Drug metabolism in prednisone treated CD1 mouse liver microsomes assessed as metabolite formation at 20 uM after 30 mins by LC/MS analysis in presence of NADPH and CYP2E inhibitor di-ethyldithiocarbamate; details: 0.5 h
[7] = Drug metabolism in dexamethasone treated CD1 mouse liver microsomes assessed as metabolite formation at 20 uM after 30 mins by LC/MS analysis in presence of NADPH and CYP2E inhibitor di-ethyldithiocarbamate; details: 0.5 h
[8] = Drug metabolism in CD1 mouse liver microsomes assessed as metabolite formation at 20 uM after 30 mins by LC/MS analysis in presence of NADPH and CYP2E inhibitor di-ethyldithiocarbamate; details: 0.5 h
[9] = Drug metabolism in prednisone treated CD1 mouse liver microsomes assessed as metabolite formation at 20 uM after 30 mins by LC/MS analysis in presence of NADPH and CYP2A inhibitor 8-methoxypsoralen; details: 0.5 h
[10] = Drug metabolism in dexamethasone treated CD1 mouse liver microsomes assessed as metabolite formation at 20 uM after 30 mins by LC/MS analysis in presence of NADPH and CYP2A inhibitor 8-methoxypsoralen; details: 0.5 h
[11] = Drug metabolism in CD1 mouse liver microsomes assessed as metabolite formation at 20 uM after 30 mins by LC/MS analysis in presence of NADPH and CYP2A inhibitor 8-methoxypsoralen; details: 0.5 h
[12] = Drug metabolism in prednisone treated CD1 mouse liver microsomes assessed as metabolite formation at 20 uM after 30 mins by LC/MS analysis in presence of NADPH and CYP2B inhibitor orphenadrine; details: 0.5 h
[13] = Drug metabolism in dexamethasone treated CD1 mouse liver microsomes assessed as metabolite formation at 20 uM after 30 mins by LC/MS analysis in presence of NADPH and CYP2B inhibitor orphenadrine; details: 0.5 h
[14] = Drug metabolism in CD1 mouse liver microsomes assessed as metabolite formation at 20 uM after 30 mins by LC/MS analysis in presence of NADPH and CYP2B inhibitor orphenadrine; details: 0.5 h
[15] = Drug metabolism in dexamethasone treated CD1 mouse liver microsomes assessed as 1alpha,24S,25(OH)3D3 metabolite formation at 20 uM after 30 mins by LC/MS analysis in presence of NADPH; details: 0.5 h
[16] = Drug metabolism in dexamethasone treated CD1 mouse liver microsomes assessed as 1alpha,23R,25(OH)3D3 metabolite formation at 20 uM after 30 mins by LC/MS analysis in presence of NADPH; details: 0.5 h
[17] = Drug metabolism in dexamethasone treated CD1 mouse liver microsomes assessed as depletion of parent compound at 1 uM after 30 mins by LC/MS analysis in presence of NADPH; details: liver microsomes from dexamethasone-treated mice, read-out: Drug metabolism
[18] = Drug metabolism in prednisone treated CD1 mouse liver microsomes assessed as depletion of parent compound at 1 uM after 30 mins by LC/MS analysis in presence of NADPH; details: 0.5 h
[19] = Drug metabolism in CD1 mouse liver microsomes assessed as depletion of parent compound at 1 uM after 30 mins by LC/MS analysis in presence of NADPH; details: 0.5 h
[20] = Drug metabolism in prednisone treated CD1 mouse liver microsomes assessed as metabolite formation at 20 uM after 30 mins by LC/MS analysis in presence of NADPH and CYP450 inhibitor SKF525A; details: 0.5 h
[21] = Drug metabolism in dexamethasone treated CD1 mouse liver microsomes assessed as metabolite formation at 20 uM after 30 mins by LC/MS analysis in presence of NADPH and CYP450 inhibitor SKF525A; details: 0.5 h
[22] = Drug metabolism in CD1 mouse liver microsomes assessed as metabolite formation at 20 uM after 30 mins by LC/MS analysis in presence of NADPH and CYP450 inhibitor SKF525A; details: 0.5 h
[23] = test system: Liver microsome; assay: Drug metabolism in human liver microsomes assessed as metabolite formation at 20 uM after 30 mins by LC/MS analysis in presence of NADPH and ketoconazole; details: 0.5 h
[24] = test system: Liver microsome; assay: Drug metabolism in human liver microsomes assessed as metabolite formation at 20 uM after 30 mins by LC/MS analysis in presence of NADPH and docetaxel; details: 0.5 h
[25] = test system: Liver microsome; assay: Drug metabolism in human liver microsomes assessed as metabolite formation at 20 uM after 30 mins by LC/MS analysis in presence of NADPH and ritonavir; details: 0.5 h
[26] = test system: Liver microsome; assay: Drug metabolism in human liver microsomes assessed as metabolite formation at 20 uM after 30 mins by LC/MS analysis in presence of NADPH and tamoxifen; details: 0.5 h
[27] = test system: Liver microsome; assay: Drug metabolism in human liver microsomes assessed as metabolite formation at 20 uM after 30 mins by LC/MS analysis in presence of NADPH and paclitaxel; details: 0.5 h
[28] = Drug metabolism in prednisone treated CD1 mouse liver microsomes assessed as metabolite formation at 20 uM after 30 mins by LC/MS analysis in presence of NADPH and CYP1A2 inhibitor furafyline; details: 0.5 h
[29] = Drug metabolism in dexamethasone treated CD1 mouse liver microsomes assessed as metabolite formation at 20 uM after 30 mins by LC/MS analysis in presence of NADPH and CYP1A2 inhibitor furafyline; details: 0.5 h
[30] = Drug metabolism in CD1 mouse liver microsomes assessed as metabolite formation at 20 uM after 30 mins by LC/MS analysis in presence of NADPH and CYP1A2 inhibitor furafyline; details: 0.5 h
[31] = Drug metabolism in prednisone treated CD1 mouse liver microsomes assessed as metabolite formation at 20 uM after 30 mins by LC/MS analysis in presence of NADPH and CYP1A1 inhibitor alpha-naphthoflavone; details: 0.5 h
[32] = Drug metabolism in dexamethasone treated CD1 mouse liver microsomes assessed as metabolite formation at 20 uM after 30 mins by LC/MS analysis in presence of NADPH and CYP1A1 inhibitor alpha-naphthoflavone; details: 0.5 h
[33] = Drug metabolism in CD1 mouse liver microsomes assessed as metabolite formation at 20 uM after 30 mins by LC/MS analysis in presence of NADPH and CYP1A1 inhibitor alpha-naphthoflavone; details: 0.5 h
[34] = Drug metabolism in prednisone treated CD1 mouse liver microsomes assessed as metabolite formation at 20 uM after 30 mins by LC/MS analysis in presence of NADPH and CYP2C inhibitor sulfaphenazole; details: 0.5 h
[35] = Drug metabolism in dexamethasone treated CD1 mouse liver microsomes assessed as metabolite formation at 20 uM after 30 mins by LC/MS analysis in presence of NADPH and CYP2C inhibitor sulfaphenazole; details: 0.5 h
[36] = Drug metabolism in CD1 mouse liver microsomes assessed as metabolite formation at 20 uM after 30 mins by LC/MS analysis in presence of NADPH and CYP2C inhibitor sulfaphenazole; details: 0.5 h
[37] = Drug metabolism in prednisone treated CD1 mouse liver microsomes assessed as metabolite formation at 20 uM after 30 mins by LC/MS analysis in presence of NADPH and CYP2D inhibitor quinine; details: 0.5 h
[38] = Drug metabolism in dexamethasone treated CD1 mouse liver microsomes assessed as metabolite formation at 20 uM after 30 mins by LC/MS analysis in presence of NADPH and CYP2D inhibitor quinine; details: 0.5 h
[39] = Drug metabolism in CD1 mouse liver microsomes assessed as metabolite formation at 20 uM after 30 mins by LC/MS analysis in presence of NADPH and CYP2D inhibitor quinine; details: 0.5 h

SMILES: C=C1/C(=C\C=C2/CCC[C@]3(C)[C@@H]([C@H](C)CCCC(C)(C)O)CC[C@@H]23)C[C@@H](O)C[C@@H]1O [CALCITRIOL]
- Drug metabolism [1]: metabolite_detected
- Drug metabolism [2]: metabolite_detected
- Drug metabolism [3]: metabolite_detected
- Drug metabolism [4]: metabolite_detected
- Drug metabolism [5]: metabolite_detected
- Drug metabolism [6]: metabolite_detected
- Drug metabolism [7]: metabolite_detected
- Drug metabolism [8]: metabolite_detected
- Drug metabolism [9]: metabolite_detected
- Drug metabolism [10]: metabolite_detected
- Drug metabolism [11]: metabolite_detected
- Drug metabolism [12]: metabolite_detected
- Drug metabolism [13]: metabolite_detected
- Drug metabolism [14]: metabolite_detected
- Drug metabolism [15]: metabolite_detected
- Drug metabolism [16]: metabolite_detected
- metabolised at 0.5 h, 1 µM [17]: 70%
- Drug metabolism [18]: metabolite_not_detected
- Drug metabolism [19]: metabolite_not_detected
- Drug metabolism [20]: metabolite_not_detected
- Drug metabolism [21]: metabolite_not_detected
- Drug metabolism [22]: metabolite_not_detected
- Drug metabolism [23]: metabolite_not_detected
- Drug metabolism [24]: metabolite_not_detected
- Drug metabolism [25]: metabolite_not_detected
- Drug metabolism [26]: metabolite_not_detected
- Drug metabolism [27]: metabolite_not_detected
- Drug metabolism [28]: metabolite_detected
- Drug metabolism [29]: metabolite_detected
- Drug metabolism [30]: metabolite_detected
- Drug metabolism [31]: metabolite_detected
- Drug metabolism [32]: metabolite_detected
- Drug metabolism [33]: metabolite_detected
- Drug metabolism [34]: metabolite_detected
- Drug metabolism [35]: metabolite_detected
- Drug metabolism [36]: metabolite_detected
- Drug metabolism [37]: metabolite_detected
- Drug metabolism [38]: metabolite_detected
- Drug metabolism [39]: metabolite_detected
